One substance from patent publication US4761398A, “Method of inducing birds to molt” (Embrex, Inc., priority 1986, dated 1988) can be followed below.

In series [1] the test system is single combed White Leghorn hens. Briefly: Induction of molt by LHRH receptor ligand. The class given is in vivo. To be noted: all treated groups, 25 micrograms/day. Here is the method: After the two week pre-molt adjustment period, the hens were randomly assigned to each of eight different groups. These treatment groups were as follows: (1) control, (2) forced molt, (3) chemical molt-injected, (4) vehicle control-injected, (5) chemical molt-microcapsules A, (6) vehicle control-microcapsules A, (7) chemical molt-microcapsules B, and (8) vehicle control-microcapsules B.
The hens then received a seven day pre-molt treatment of a 24 hour light, zero hour dark photoperiod. On day 14 of the experiment the photoperiod was then reduced to natural day length for all treatments. Feed was made available ad libitum for all groups except the forced molt group. The forced molt group was deprived of food, but not of water, until a 30% body weight loss occurred (10 days of fasting).
[D-Trp^6 ]LHRH was used as the LHRH receptor ligand for the chemical molt groups. The "chemical molt-injected" group received intramuscular (breast) injections of 25 micrograms/day of [D-Trp^6 ]LHRH for 10 consecutive days beginning on day 14. Alternate pectoral (breast) areas were injected each day. […]
Microcapsules were suspended in disposable syringes in vehicle containing 2% carboxymethyl cellulose and 1% "TWEEN 20" in water. After thoroughly mixing the suspension, aliquots calculated to have released a dose of 25 micrograms/day for 15 consecutive days were injected into the breast muscle of the hens. […]

Series [2] is described as follows: Body weight of hens through the molt and production period. The class given is in vivo, single combed White Leghorn hens. As to the method:
During the experiment, two birds were assigned to each cage (12"×18"). The hens were maintained in their cages for two weeks prior to the molt. They received a 17 hour light: 7 hour dark photoperiod throughout this phase of the experiment. During this time, the following parameters were measured:(a) body weight (weekly); (b) feed consumption (all hens received a common layer ration, and the feed consumed during this two week period was measured); (C) production records (daily); and (d), total egg weight, egg shell weight, and egg specific gravity (measured on three consecutive days each week). Serum samples were taken once, from 10 randomly selected hens from each treatment group, and saved for future study. After the two week pre-molt adjustment period, the hens were randomly assigned to each of eight different groups. These treatment groups were as follows: (1) control, (2) forced molt, (3) chemical molt-injected, (4) vehicle control-injected, (5) chemical molt-microcapsules A, (6) vehicle control-microcapsules A, (7) chemical molt-microcapsules B, and (8) vehicle control-microcapsules B. The hens then received a seven day pre-molt treatment of a 24 hour light, zero hour dark photoperiod. On day 14 of the experiment the photoperiod was then reduced to natural day length for all treatments. Feed was made available ad libitum for all groups except the forced molt group. The forced molt group was deprived of food, but not of water, until a 30% body weight loss occurred (10 days of fasting). [D-[…] ]LHRH was used as the LHRH receptor ligand for the chemical molt groups. The "chemical molt-injected" group received intramuscular (breast) injections of 25 micrograms/day of [D-[…] ]LHRH for 10 consecutive days beginning on day 14. Alternate pectoral (breast) areas were injected each day. The "chemical molt-microcapsule" groups received a single intramuscular (breast) injection of microencapsulated [D-[…] ]LHRH on day zero. This preparation of microcapsules provided a controlled release of 25 micrograms [D-[…] ]LHRH per day for 15 consecutive days. For all treatments, body weights were measured at day zero and every three days thereafter, until the forced molt group achieved a 30% weight loss. Serum samples were periodically collected from 10 hens randomly selected from each group, and saved for future analysis. The same 10 hens from each group were bled at each collection. On day 14, the microcapsule injected groups received intramuscular injections of lactide/glycolide copolymer microcapsules which had [D-[…] ]LHRH incorporated therein. The ligand-containing microcapsules administered the "Microcapsules A" group were prepared and supplied by Debiopharm (Lausanne, Switzerland). These microcapsules were prepared by a phase-separation process to produce a free-flowing powder of spherical particles consisting of [D-[…] ]LHRH (2% wt/wt) distributed within a polymeric matrix of 53:47(mol %) poly(DL-lactide-co-glycolide) (98% wt/wt) with an inherent viscosity of 0.7 dl/g. The microcapsules were 50 micrometers or less in diameter. […] Photomicrographs of similar microcapsules are presented in T. W. Redding, et al., Proc. Natl. Acad. Sci. […]. 1984). Microcapsules were suspended in disposable syringes in vehicle containing 2% carboxymethyl cellulose and 1% "TWEEN 20" in water. After thoroughly mixing the suspension, aliquots calculated to have released a dose of 25 micrograms/day for 15 consecutive days were injected into the breast muscle of the hens. We weighed the microcapsules directly into disposable 3 ml syringes. The plunger of a plugged syringe containing microcapsules (without vehicle) was pulled back to the 1.5-2 cc mark. The hub of the syringe was then placed against a vortex mixer and the syringe vortexed rapidly for about 20 seconds, or until most of the clumps of microbeads were broken and distributed along the barrel of the syringe. […]

[D-Trp^6 ]LHRH [D-Trp^6 --LHRH]: in series [1], the induction of molt entry is “induced to molt”. Further, the “MEAN BODY WEIGHT” value was determined as 1.669 kg in series [2] (Day 5, before treatment); 1.722 kg in series [2] (Day 12, before treatment (treatment started day 13/14)); 1.765 kg in series [2] (Day 17, 25 micrograms/day i.m.); 1.704 kg in series [2] (Day 22, 25 micrograms/day i.m.); 1.637 kg in series [2] (Day 27); 1.654 kg in series [2] (Day 33). The “MEAN BODY WEIGHT” value came out at 1.747 kg in series [2] (Day 40); 1.760 kg in series [2] (Day 47); 1.761 kg in series [2] (Day 54); 1.802 kg in series [2] (Day 61); 1.838 kg in series [2] (Day 75); 1.720 kg in series [2] (Day Zero, before treatment).
